# Source: patent US20240117431A1, “STEM-CELL BASED BIOMARKER DISCOVERY” (THE REGENTS OF THE UNIVERSITY OF CALIFORNIA, priority 2020, published 2024)
# Test system: mutant TgUPRT (triple mutants 3×MT, M166A/A168G/Y228A and M166A/A168G/Y228G) in HEK293 cells
# Assay: In-cell RNA incorporation by mutant TgUPRT, streptavidin dot blot
# Type: cell-based, Toxoplasma gondii
# Experimental: Transfection, labeling of cellular RNA and RNA isolation: After 48h seeding, HEK293 cells were transfected with 2.5 μg of TgUPRT WT or mutant plasmids (pKN-CMV-TgUPRT-WT or -Mutt to Mut17) per 5 cm plate using JetPrime Transfection reagent (Polyplus Transfection, France). At 40h post-transfection, cells were incubated with a final concentration of 200 μM at <1% DMSO from 400 mM stock of uracil analogs (5EU, 5VU, 5AU) or 200 mM SAMU stock for 5 h. For time course study, HEK cells were treated with 200 μM uracil analogs for 0 h, 0.5, 1, 3, 5, 12 and 24 hours. For titrating uracil analog concentration experiments, HEK cells were treated with 0 (DMSO), 50, 100, 200, 500 μM or 1 mM uracil analog for 5h. Treated HEK cells were subjected to total RNA extraction using 1 mL Trizol Reagent (Invitrogen) following the manufacturer instructions.
# Biotinylation via CuAAC and IEDDA: Cu-mediated Azide-Alkyne cycloaddition (CuAAC) click reactions were performed in 50 μL reaction at 22° C. on a shaker for 30 min with click reaction cocktail containing 15 μg of total RNA, 1 mM biotin alkyne or biotin azide, fresh 4.6 mM THPTA to a final concentration of 1 mM, and fresh 10.6 mM sodium ascorbate (NaAsc) at final concentration of 1.77 mM, and 12 mM CuSO4 at final concentration of 200 μM in biotinylation reaction buffer (10 mM TrisHCI, 1 mM EDTA, pH7.4). The biotinylated RNA was purified using RNA clean & Concentrator-5 kit (Zymo Research, Cat #R1013) according to the manufacturer instructions and eluted in 21 μL of nuclease free water.
# Inverse electron demand [4+2] Diels-Alder cycloaddition (IEDDA) click reactions were performed in 50 μL at 37° C. or 22° C. (RT) for 3h on mixer at 500 rpm containing 10-15 μg of total RNA, 1 mM final concentration of biotin-benzyl tetrazine (Sigma Aldrich, Cat #793329-5MG) in nuclease free water. Clicked total RNA was purified using RNA clean & Concentrator-5 kit (Zymo Research, Cat #R1013) according to the manufacturer instructions, and RNA was eluted in 21 μL of nuclease free water.
# HRP-streptavidin dot blot analysis: All gel reagents were from Bio-Rad. […]
smiles,measurement,setting,value
"C=Cc1c[nH]c(=O)[nH]c1=O [compound 2, 5-Vinylpyrimidine-2,4(1H,3H)-dione]",analog incorporation over time with mutant TgUPRT enzymes,"200 μM time course to 24 h, in comparison to wild-type",much more robust over time
same,time at which analog incorporation was observed,"200 μM time course, dot blot, FIG. 9B",0.5 hr
same,incorporation into RNA by triple mutants (3×MT),"200 μM, 5 hours, HEK293T",robust incorporation
